Experimental data published in ChEMBL document CHEMBL3352623, “Improved antiproliferative activity of 1,3,4-thiadiazole-containing histone deacetylase (HDAC) inhibitors by introduction of the heteroaromatic surface recognition motif” (Bioorg Med Chem, 2014).

Assays:
[1] = target: Histone deacetylase (HDAC1 and HDAC2) (Homo sapiens, UniProt Q13547+Q92769); test: Inhibition of HDAC1/HDAC2 in human HeLa cell extract incubated for 5 mins prior to substrate addition measured after 30 mins by microtitre plate reader analysis; type: cell-based
K562 = test: Antiproliferative activity against human K562 cells after 48 hrs by MTT assay; type: functional, cell-based; conditions: K562, 48 h
MDA-MB-231 = test: Antiproliferative activity against human MDA-MB-231 cells after 48 hrs by MTT assay; type: functional, cell-based; conditions: MDA-MB-231, 48 h
[2] = Antiproliferative activity against human PC3 cells after 48 hrs by MTT assay; type: functional, cell-based; conditions: PC-3, 48 h

Structure (SMILES)	IC50 [1] [µM]	IC50 (K562) [µM]	IC50 (MDA-MB-231) [µM]	IC50 [2] [µM]
O=C(CCCCCC(=O)Nc1nnc(-c2ccc(N3CCOCC3)cc2)s1)NO	> 5			
CN(C)c1ccc(-c2nnc(NC(=O)CCCCCC(=O)NO)s2)cc1	> 5			
COc1ccc(-c2nnc(NC(=O)CCCCCC(=O)NO)s2)cc1	0.437			
COc1ccc(-c2nnc(NC(=O)CCCCCC(=O)NO)s2)cc1OC	0.487			
O=C(CCCCCC(=O)Nc1nnc(-c2ccc(-c3ccccc3)cc2)s1)NO	> 5			
CS(=O)(=O)c1ccc(-c2nnc(NC(=O)CCCCCC(=O)NO)s2)cc1	0.721			
O=C(CCCCCC(=O)Nc1nnc(-c2ccc([N+](=O)[O-])cc2)s1)NO	0.709			
O=C(CCCCCC(=O)Nc1nnc(-c2ccc(C(F)(F)F)cc2)s1)NO	1.154			
O=C(CCCCCCC(=O)Nc1nnc(-c2ccc(N3CCOCC3)cc2)s1)NO	> 5			
O=C(CCCCCCC(=O)Nc1nnc(-c2ccc(-c3ccccc3)cc2)s1)NO	> 5			
O=C(CCCCCCC(=O)Nc1nnc(-c2cccc(Br)c2)s1)NO	1.215			
O=C(CCCCCCC(=O)Nc1nnc(-c2ccc(I)cc2)s1)NO	> 5			
CS(=O)(=O)c1ccc(-c2nnc(NC(=O)CCCCCCC(=O)NO)s2)cc1	0.598			
O=C(CCCCCCC(=O)Nc1nnc(-c2ccc(C(F)(F)F)cc2)s1)NO	> 5			
O=C(CCCCCC(=O)Nc1nnc(-c2cccnc2)s1)NO	0.325	> 60	11.7	54.4
O=C(CCCCCC(=O)Nc1nnc(-c2ccncc2)s1)NO	0.411	> 60	40.1	> 60
O=C(CCCCCCC(=O)Nc1nnc(-c2ccc3ccccc3c2)s1)NO	> 5			
O=C(CCCCCCC(=O)Nc1nnc(-c2cccnc2)s1)NO	0.386	4.36	1.87	7.98
O=C(CCCCCCC(=O)Nc1nnc(-c2ccncc2)s1)NO	0.286	4.15	4.69	7.75
O=C(CCCCCCC(=O)Nc1nnc(-c2ccco2)s1)NO	0.436			
O=C(CCCCCCC(=O)Nc1nnc(-c2cccs2)s1)NO	0.31	1.56	1.21	3.6
O=C(CCCCCCC(=O)Nc1ccccc1)NO [VORINOSTAT]			2.29	

The next lines start with results.

IC50 [1] [µM]	IC50 (K562) [µM]	IC50 (MDA-MB-231) [µM]	Structure (SMILES)	IC50 [2] [µM]
1.285			O=C(CCCCCC(=O)Nc1nnc(-c2ccc(Br)cc2)s1)NO	
0.422			Cc1ccc(-c2nnc(NC(=O)CCCCCC(=O)NO)s2)cc1	
0.741			O=C(CCCCCC(=O)Nc1nnc(-c2ccc(F)cc2)s1)NO	
0.988			O=C(CCCCCC(=O)Nc1nnc(-c2ccc(Cl)cc2)s1)NO	
0.847			O=C(CCCCCC(=O)Nc1nnc(-c2cccc(Cl)c2)s1)NO	
0.507			O=C(CCCCCC(=O)Nc1nnc(-c2ccccc2Cl)s1)NO	
0.875			O=C(CCCCCC(=O)Nc1nnc(-c2ccc(I)cc2)s1)NO	
0.526			O=C(CCCCCCC(=O)Nc1nnc(-c2ccccc2Br)s1)NO	
3.186			O=C(CCCCCC(=O)Nc1nnc(-c2cccc3ccccc23)s1)NO	
> 5			O=C(CCCCCC(=O)Nc1nnc(-c2ccc3ccccc3c2)s1)NO	
0.434			O=C(CCCCCC(=O)Nc1nnc(-c2ccco2)s1)NO	
0.411	> 60	15.2	O=C(CCCCCC(=O)Nc1nnc(-c2cccs2)s1)NO	> 60
> 5			O=C(CCCCCCC(=O)Nc1nnc(-c2cccc3ccccc23)s1)NO	
